Values of other authors, collected in US20020155997A1 (priority 2000, published 2002).

Test system: bovine plasma
Conditions: reference standard

dextran sulfate
anticoagulant activity of the standard: 25 units/mg
